Assays:
Assay type in all cases: in vivo
[1] = tested on: cucumber plants ('Marketer'); experiment: Cucumber plant survival under extreme drought
Description: For each drought or limited water experiment 480 seeds (of either pepper, barley, tomato, cucumber or corn) were sown, producing 384 plants in 512 cm^3 pots (4 plants per pot). Plants were grown under chamber conditions at 21° C. for 3 weeks. Then, the plants were moved to a greenhouse, where average temperature was 25° C. to 28° C. Spray and irrigation treatments as described herein were done when the plants had two extended leaves and the next pair of leaves were coming up.
Treatments: Twelve pots (containing 48 plants) were irrigated with 40 ml of either: water, 0.1 g/L TMAO di-hydrate solution, 1.0 g/L TMAO di-hydrate solution, or 5.5 g/L TMAO di-hydrate solution. Another set of 12 pots containing 48 plants were sprayed with 40 ml of either water (3.3 ml in average per pot), a solution containing 0.1 g/L TMAO di-hydrate solution, 1.0 g/L TMAO di-hydrate, or 5 g/L, or 10 g/L TMAO di-hydrate. Further sets of 12 pots containing 48 plants were both sprayed with each initial solution TMAO di-hydrate solution and further irrigated with the same TMAO di-hydrate solutions used in the control water sprayed plants. All pots were also watered with 40 ml of water. The sprayed plants were watered with the same volume of water as the “irrigated plants). The pots were located on plastic glass to maintain constant moisture and to avoid liquid spillage during watering. Trays containing the pots were located on greenhouse tables. The distribution of the trays on the table and the position on the pots in the tray was changed every week to avoid position effects.
After the treatments described above, the plants were not watered until the pots completely lost their moisture, taking about 4 to 8 days depending on the season, at which point the plants were extremely wilted for the extreme drought experiments. The plants were then watered once with solutions containing the different amounts of TMAO di-hydrate (0.1 g/L, 1.0 g/L, 5 g/L, or 10 g/L) or just water, after which the plants were left to lose their moisture completely again for three consecutive cycles of watering after wilting. For the “extreme drought” experiments plants were allowed to wilt severely before watering and then the plant survival rate was recorded and analyzed.
TMAO di-hydrate applied exogenously which increases the endogenous content of TMAO as if the plants were overexpressing an FMO protein at least 4 times increases plant survival in cucumber under extreme drought conditions. ‘Marketer’ cucumber seeds were sown, grown and treated as described above.

[2] = tested on: broccoli plants (Parthenon); experiment: Yield production without drought stress, broccoli; conditions: 1 g/l spray every 4 weeks for 3 months, no drought stress
Description: (§1) In order to determine the plant yield productivity under normal conditions, ‘Sabrina’, ‘Candonga’ and ‘Fortuna’ strawberry varieties, leek, lettuce, “Iceberg” variety, broccoli “Parthenon” variety, celery or kohlrabi plants, were grown under standard production conditions and 120 plants of each variety per treatment (where the treatment was a control comprising standard watering or 1 g/L of TMAO di-hydrate spray every four weeks) were analyzed. Plants were located in four (4) different positions for each group of 30 plants from the same treatment. Fruits, leaves or roots were harvested from individual plants and total weight was determined for each plant.
(§2) Root or leaves yield was determined in the plants treated with 1 g/l of TMAO di-hydrate or water as described above in order to evaluate the trade-off costs of the treatment with no drought stress.

kohlrabi plants = experiment: Yield production without drought stress, kohlrabi; conditions: 1 g/l spray every 4 weeks for 3 months, no drought stress
Description: as §1, §2

corn plants ('FAO700') = experiment: Corn chlorophyll content under limited water; conditions: 30% water; 1 g/L spray; after three months
Description: (§3) In order to determine the drought or drought stress tolerance after seed treatments with TMAO di-hydrate and germination in the presence of TMAO di-hydrate, barley “Hispanic” seeds, corn “FAO700” seeds, and “Sambro” sunflower seeds were surface sterilized for 3 minutes in ethanol 70%, then rinsed twice and finally included in a pre-treatment solution of 1 g/L TMAO di-hydrate solution (or just water) under shaking for 3 hours at a dose of 1 litre per Kg of seeds. Then, the seeds were sown in randomized plots of 10 sqm in a surface of 2.000 sqm. Chlorophyll content was measured 1 month before harvest. In corn irrigation was applied in half of the plots while the other half only received an initial establishment watering. The barley plots received 200 l of rain per m^2 through the growing season. Some of the plots received a second spray treatment with 1 g/liter of TMAO. […] At least 3 independent plants were treated per experiment.
TMAO di-hydrate applied exogenously increases plant production in corn which increases the endogenous content of TMAO as if the plants were overexpressing an FMO protein at least 4 times under limited water irrigation. ‘FAO700” corn seeds were sown, grown and treated as described above. […] After this time, the absorbance of the suspension (OD663) was determined as an indicator of chlorophyll concentration.

[3] = tested on: pepper plants ('Palermo'); experiment: Pepper fruit production, spray or constant irrigation
Source text: TMAO di-hydrate applied exogenously which increases the endogenous content of TMAO as if the plants were overexpressing an FMO protein at least 4 times increases pepper production per plant and pepper fruit weight under limited water irrigation and under no stress. ‘Palermo’ pepper seeds were sown, grown and treated as described above.

[4] = tested on: barley plants ('Hispanic'); experiment: Barley field seed production without irrigation; conditions: no external irrigation
Description: as §3
TMAO di-hydrate applied exogenously which increases the endogenous content of TMAO as if the plants were overexpressing an FMO protein at least 4 times increases seed production in barley grown in the field without irrigation. ‘Hispanic” barley seeds were sown, grown and treated as described. Both, seed treatments (each Kg of seed was soaked in 1 liter of a 1 g/1 L TMAO di-hydrate solution, although smaller volumes of this solution are also effective) and a combination of seed and spray treatments with 1 g/L TMAO di-hydrate increased plant grain production. The field experienced 200 l/m^2 of rain water in total through the season.

[5] = 30% water, 1 g/L in every irrigation
[6] = 1 g TMAO/1 Kg seed + 1 g/L spray

`C[N+](C)(C)[O-].O.O` [TMAO di-hydrate, trimethylamine N-oxide di-hydrate] was tested, and the “SURVIVAL RATE (%)” value ([1]; irrigation 0.1 g/L, initial spray 0.1 g/L) was 82.9 ± 7.4%, the “SURVIVAL RATE (%)” value ([1]; irrigation 0.1 g/L, initial spray 1 g/L) was 91.6 ± 7.4% and the “SURVIVAL RATE (%)” value ([1]; irrigation 0.1 g/L, initial spray 5 g/L) was 95.8 ± 7.4%. The “SURVIVAL RATE (%)” value ([1]; irrigation 0.1 g/L, initial spray water) was 45.8 ± 7.4%, the “SURVIVAL RATE (%)” value ([1]; irrigation 1 g/L, initial spray 0.1 g/L) was 91.6 ± 5.9% and the “SURVIVAL RATE (%)” value ([1]; irrigation 1 g/L, initial spray 1 g/L) was 91.6 ± 5.9%. The “SURVIVAL RATE (%)” value ([1]; irrigation 1 g/L, initial spray 5 g/L) was 91.6 ± 5.9%, the “SURVIVAL RATE (%)” value ([1]; irrigation 1 g/L, initial spray water) was 87.5 ± 5.9% and the “SURVIVAL RATE (%)” value ([1]; irrigation 5 g/L, initial spray 0.1 g/L) was 75.0 ± 7.2%. The “SURVIVAL RATE (%)” value ([1]; irrigation 5 g/L, initial spray 1 g/L) was 95.8 ± 7.2%, the “SURVIVAL RATE (%)” value ([1]; irrigation 5 g/L, initial spray 5 g/L) was 95.8 ± 7.2% and the “SURVIVAL RATE (%)” value ([1]; irrigation 5 g/L, initial spray water) was 66.6 ± 7.2%. The “SURVIVAL RATE (%)” value ([1]; irrigation all regimes, initial spray 0.1 g/L) was 80.1 ± 3.4%, the “SURVIVAL RATE (%)” value ([1]; irrigation all regimes, initial spray 1 g/L) was 92.7 ± 3.4% and the “SURVIVAL RATE (%)” value ([1]; irrigation all regimes, initial spray 5 g/L) was 94.7 ± 3.4%. For the same molecule, the “SURVIVAL RATE (%)” value ([1]; irrigation water, initial spray 0.1 g/L) was 83.3 ± 7.2%, the “SURVIVAL RATE (%)” value ([1]; irrigation water, initial spray 1 g/L) was 91.6 ± 7.2% and the “SURVIVAL RATE (%)” value ([1]; irrigation water, initial spray 5 g/L) was 95.8 ± 7.2%. The “Yield production, % Control” value [2] was 120%, the “Yield production, % Control” value (kohlrabi plants) was 103% and the “OD663 ABSORVANCE (CHLOROPHYLL a)” value (corn plants ('FAO700')) was 0.7278 ± 0.076. For the same molecule, the “increase in average fruit weight production per pepper plant versus 100% irrigation untreated” value [3, 5] was 13.3%, the “increase in average weight per pepper fruit versus 100% irrigation untreated” value [3, 5] was 11.9% and the “AVERAGE FRUIT WEIGHT (GRAMS) PER PEPPER PLANT” value ([3]; 30% water, 1 g/L irrigation) was 545.0 ± 36.4 GRAMS. For the same molecule, the “AVERAGE FRUIT WEIGHT (GRAMS) PER PEPPER PLANT” value ([3]; 30% water, 1 g/L spray) was 504.8 ± 46.4 GRAMS, the “AVERAGE WEIGHT (GRAMS) PER PEPPER FRUIT” value ([3]; 30% water, 1 g/L spray) was 33.5 ± 0.9 GRAMS and the “increase in average fruit weight production per pepper plant versus 100% irrigation untreated” value ([3]; 30% water, 1 g/L spray) was 4.9%. For the same molecule, the “increase in average fruit weight production per pepper plant in the absence of stress” value ([3]; 100% water, 1 g/L in every irrigation) was 17.9%, the “AVERAGE FRUIT WEIGHT (GRAMS) PER PEPPER PLANT” value ([3]; 100% water, 1 g/L irrigation) was 567.4 ± 19.6 GRAMS and the “AVERAGE WEIGHT (GRAMS) PER PEPPER FRUIT” value ([3]; 100% water, 1 g/L irrigation) was 35.7 ± 1.3 GRAMS. For the same molecule, the “% Control (seed production)” value ([4]; 1 g TMAO/1 Kg seed) was 18%, the “Average number of Grams per square meter (seed production)” value ([4]; 1 g TMAO/1 Kg seed) was 225.98 ± 11.89 Grams per square meter and the “% Control (seed production)” value [4, 6] was 35%. The “Average number of Grams per square meter (seed production)” value [4, 6] was 256.36 ± 12.78 Grams per square meter.

— US20160237450A1, “METHOD FOR ENHANCING DROUGHT TOLERANCE IN PLANTS” (Plant Response Biotech S.L., priority 2015, published 2016)
